The source made the active and inactive calls. Rule as the data show it, for most assays here: actives have a measured EC50 and inactives only a lower limit.
Tests used:
[1] = biological target: T1, Zinc finger protein mex-5 (Caenorhabditis elegans, UniProt Q9XUB2); test: MEX-5/TCR-2 RNA interaction inhibitors, dose response, biochemical, C. elegans, fluorescence polarization (AID 1960)
T1 sequence (Q9XUB2 whole entry): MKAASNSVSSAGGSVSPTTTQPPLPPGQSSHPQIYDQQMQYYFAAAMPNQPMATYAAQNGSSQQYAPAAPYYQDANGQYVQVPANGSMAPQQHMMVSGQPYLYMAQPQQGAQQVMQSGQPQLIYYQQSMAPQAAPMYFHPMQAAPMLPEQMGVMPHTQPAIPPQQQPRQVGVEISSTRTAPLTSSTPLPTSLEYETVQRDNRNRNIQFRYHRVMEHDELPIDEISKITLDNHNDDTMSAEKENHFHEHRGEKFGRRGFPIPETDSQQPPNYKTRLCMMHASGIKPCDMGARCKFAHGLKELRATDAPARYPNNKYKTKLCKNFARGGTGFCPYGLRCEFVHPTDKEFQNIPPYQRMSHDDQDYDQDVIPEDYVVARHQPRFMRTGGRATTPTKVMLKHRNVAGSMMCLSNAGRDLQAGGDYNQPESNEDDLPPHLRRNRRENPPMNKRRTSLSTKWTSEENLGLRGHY

[2] = biological target: T2, RNA-binding protein pos-1 (Caenorhabditis elegans, UniProt G5EF15); test: inhibitors of POS-1/mex-3 RNA binding, dose response, biochemical, fluorescence polarization (AID 1964);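 also: purified POS-1 fused to maltose binding protein made in E. coli; potency of compounds blocking POS-1 binding to fluorescent RNA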
T2 sequence (G5EF15 whole entry): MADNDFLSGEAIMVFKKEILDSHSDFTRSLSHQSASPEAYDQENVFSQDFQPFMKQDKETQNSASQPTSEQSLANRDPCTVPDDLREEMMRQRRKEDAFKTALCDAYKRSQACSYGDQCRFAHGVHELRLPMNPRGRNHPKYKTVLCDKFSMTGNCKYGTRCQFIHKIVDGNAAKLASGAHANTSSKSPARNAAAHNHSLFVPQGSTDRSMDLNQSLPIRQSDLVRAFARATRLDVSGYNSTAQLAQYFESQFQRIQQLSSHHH

[3] = C. albicans growth with fluconazole, confirmation, fluorescence, retest (AID 2467); format: functional, cell-based
[4] = NIH-3T3 fibroblast cytotoxicity, dose response, cytotoxicity control, cell-based, fluorescence, Alamar Blue, secondary assay (AID 2327); format: functional;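 also: NIH-3T3 mouse fibroblasts cultured with fluconazole at 8 µg/mL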
[5] = Luminescence Cell-Based Dose Response HTS to Identify Inhibitors of 5'UTR Stem-Loop Driven Prion Protein mRNA Translation in H4 Neuroglioblastoma Cells. [Related pubchem assays: 1827 (Project Summary), 1813 (Primary HTS)]; format: functional
[6] = inhibitors of SNCA 5'UTR-driven reporter translation, confirmation, H4 neuroglioma cells, luminescence (AID 1988); format: functional, cell-based
[7] = inhibitors of firefly luciferase expression or activity, dose response, H4 neuroglioma cells, luminescence (AID 1990); format: functional, cell-based
[8] = biological target: T3, Heat shock factor protein 1 (Mus musculus, UniProt P38532); test: HSF1 potentiators in luciferase reporter cells, confirmation, cell-based, NIH3T3, luminescence, dose retest (AID 435004); format: functional;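 also: stress induced by proteasome inhibitor MG132 added 30 min after compound; luciferase reporter driven by HSF1 response element in NIH3T3 cells; actives raise luminescence as potentiators of the MG132 stress response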
T3 sequence (P38532 whole entry): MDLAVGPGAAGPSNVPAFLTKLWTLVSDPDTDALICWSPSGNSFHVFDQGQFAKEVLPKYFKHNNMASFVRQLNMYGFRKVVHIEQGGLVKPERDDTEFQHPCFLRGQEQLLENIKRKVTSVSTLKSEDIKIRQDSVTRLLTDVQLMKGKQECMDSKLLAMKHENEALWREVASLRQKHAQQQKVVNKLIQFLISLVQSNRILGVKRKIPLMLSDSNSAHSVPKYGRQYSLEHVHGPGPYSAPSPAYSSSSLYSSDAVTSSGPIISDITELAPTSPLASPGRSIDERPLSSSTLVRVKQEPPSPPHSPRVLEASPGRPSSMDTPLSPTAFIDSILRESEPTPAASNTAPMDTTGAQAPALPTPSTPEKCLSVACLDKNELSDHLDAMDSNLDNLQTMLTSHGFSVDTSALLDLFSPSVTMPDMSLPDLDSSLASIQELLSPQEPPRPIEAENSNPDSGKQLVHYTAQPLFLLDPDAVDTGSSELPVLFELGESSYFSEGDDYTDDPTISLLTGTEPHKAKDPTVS

[9] = Luminescence Cell-Based Dose Retest to Confirm Inhibitors of Cancer Stem Cells. [Related pubchem assays (depositor defined):AID2717, AID2721]; format: functional, Homo sapiens; settings: Homo sapiens
Streptococcus = test: Group A Streptococcus viability loss, dose response, counter-screen for streptokinase expression inhibitor project, luminescence, BacTiterGlo (AID 1915); format: functional, organism-based;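 also: potency for reduction of bacterial viability or growth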
[10] = system: Streptococcus sp. 'group A'; test: growth inhibition of control SK(-) GAS strain, dose response, counter-screen for streptokinase expression inhibitor project, luminescence, kanamycin, BacTiterGlo, confirmation (AID 1900); format: functional, organism-based
[11] = inhibitors of intracellular T. cruzi replication, confirmation, NIH3T3 host cells, beta-gal luminescence (AID 2044); format: functional, cell-based;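 also: intracellular parasites grown in NIH/3T3 mouse fibroblasts as host cells; luminescent beta-galactosidase reporter signal from transgenic T. cruzi replicating inside host cells; inhibitors lower the luminescence signal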
[12] = cytotoxicity toward NIH3T3 fibroblasts, dose response, counter-screen, cell-based, ATP luminescence, mouse fibroblasts (AID 2010); format: functional;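 also: cells exposed to compound for about 90 hours before reading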
Streptokinase A = biological target: T4, Streptokinase A (Streptococcus pyogenes serotype M1, UniProt P10520); test: S. pyogenes streptokinase expression inhibitors, potency, dose response, plasminogen activation absorbance, OD405 (AID 1914); format: functional, Streptococcus pyogenes M1 GAS;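 also: secreted streptokinase activity via plasminogen activation per viability signal from cell pellet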
T4 sequence (P10520 whole entry): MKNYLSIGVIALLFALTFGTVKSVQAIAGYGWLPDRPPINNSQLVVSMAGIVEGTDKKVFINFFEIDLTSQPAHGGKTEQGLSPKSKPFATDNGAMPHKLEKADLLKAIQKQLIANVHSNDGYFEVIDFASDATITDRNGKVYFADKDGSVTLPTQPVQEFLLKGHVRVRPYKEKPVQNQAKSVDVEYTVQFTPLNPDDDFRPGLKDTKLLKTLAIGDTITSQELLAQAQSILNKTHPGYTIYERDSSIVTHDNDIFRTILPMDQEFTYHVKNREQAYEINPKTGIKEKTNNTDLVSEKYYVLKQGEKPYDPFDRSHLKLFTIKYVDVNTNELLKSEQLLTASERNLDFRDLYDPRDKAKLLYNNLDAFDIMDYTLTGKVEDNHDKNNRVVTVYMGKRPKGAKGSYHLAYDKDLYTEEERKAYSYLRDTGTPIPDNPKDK
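For AC50 in this document: cells exposed to compound for roughly 70 hours or longer before luminescence read.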

| Structure (SMILES) | EC50 [1] | EC50 [2] | EC50 [5] | EC50 [6] | EC50 [7] | also measured |
| --- | --- | --- | --- | --- | --- | --- |
| N#Cc1c(NC(=O)/C=C/C(=O)O)sc2c1CCN(Cc1ccccc1)C2 | 25.5 µM (active) | 31 µM (active) |  |  |  |  |
| O=C(O)c1cc(-c2ccc(O)cc2)on1 |  |  |  |  |  | EC50 [3]: > 38 µM (not active); EC50 [4]: > 160 µM (inactive) |
| FC(F)(F)COc1nc(OCC(F)(F)F)nc(N2CCN(c3ccccc3)CC2)n1 |  |  |  |  |  | EC50 [3]: > 38 µM (not active); EC50 [4]: > 160 µM (inactive) |
| O=[N+]([O-])c1ccc(OCc2cn([C@@H](CO)c3ccccc3)nn2)c(Br)c1 |  |  | > 120 µM (not active) | > 120 µM (not active) | > 120 µM (not active) |  |
| CCN(C(=O)c1cc(Cl)ccc1OC)C1CCCCC1 | > 300 µM (not active) | > 300 µM (not active) |  |  |  |  |
| Cc1ccc(C)c(NC(S)=NNC(=O)c2csc(C)c2)c1 |  |  |  |  |  | EC50 [3]: 0.947 µM (active); EC50 [4]: 67.2 µM (active) |
| COc1ccc(N/C=C2/C(=O)NC(=S)N(Cc3ccccc3)C2=O)c(OC)c1 | > 300 µM (inconclusive) | > 300 µM (inconclusive) |  |  |  | EC50 [8]: 2.74 µM (active) |
| CCOC(=O)C1Nc2ccc(C)cc2C2C=CCC12 (stereo not drawn) | > 300 µM (not active) | > 300 µM (not active) |  |  |  |  |
| O=C(NC(=S)Nn1cnc2c(cnn2-c2ccccc2)c1=O)c1ccc(Cl)cc1 |  |  |  |  |  | EC50 [3]: > 38 µM (not active); EC50 [4]: 143 µM (inconclusive) |
| O=S(=O)(Nc1ccc(O)c2ccccc12)c1ccc(Br)cc1 | 22.9 µM (active) | 36 µM (active) |  |  |  |  |
| CC1CCc2nc(NCCO)nc(C(F)(F)F)c2C1 (stereo not drawn) |  |  | 26.1 µM (active) | > 120 µM (not active) | 12.5 µM (active) |  |
| O=C(O)c1ccc2c(c1)C1C=CCC1C(c1ccncc1)N2 (stereo not drawn) | 24.3 µM (inconclusive) | 58.5 µM (active) |  |  |  |  |
| COc1cc(C2C(C#N)=C(N)OC3=C2C(=O)CCC3)cc2c1OCO2 (stereo not drawn) | > 300 µM (not active) | > 300 µM (not active) |  |  |  |  |
| O=c1cc(N2CCCCC2)c(-c2ccccc2)nn1Cc1c(Cl)cccc1Cl |  |  | > 120 µM (not active) | > 120 µM (not active) | 14.8 µM (active) | AC50 [9]: 4.43 µM (active); EC50 (Streptococcus): 5.18 µM (active); EC50 [10]: 5.65 µM (active) |
| C=CCn1c(Cc2nc3ccccc3[nH]2)n[nH]c1=S | 1.1 µM (active) | 80.2 µM (active) |  |  |  |  |
| NC(=O)c1sc2nc3c(c(-c4ccc(Cl)cc4)c2c1N)CCCC3 |  |  | > 120 µM (not active) | 12.3 µM (active) | 12.5 µM (active) |  |
| CC(=O)C(=NNc1nc2c([nH]1)c(=O)n(C)c(=O)n2C)C(C)=O | 12.7 µM (active) | 73.9 µM (active) |  |  |  |  |
| Clc1cccc(CN2CCN(Cc3nc(CCc4ccccc4)no3)CC2)c1 |  |  | 32.3 µM (active) | > 120 µM (not active) | > 120 µM (not active) | EC50 [8]: > 260 µM (inactive) |

| Structure (SMILES) | EC50 [1] | EC50 [2] | EC50 [5] | EC50 [6] | EC50 [7] | also measured |
| --- | --- | --- | --- | --- | --- | --- |
| CC(C)CNC(=O)C1Nc2ccc(C(F)(F)F)cc2C2C=CCC12 (stereo not drawn) | > 300 µM (not active) | > 300 µM (not active) |  |  |  |  |
| COC(=O)c1cc(C(=O)OC)cc(-n2c(C)cc(C(=O)COC(=O)CNS(=O)(=O)c3ccc(C)cc3)c2C)c1 | > 300 µM (not active) | > 300 µM (not active) |  |  |  |  |
| COC(=O)C1CCN(C(=O)COC(=O)Cc2c[nH]c3ccccc23)CC1 |  |  | > 120 µM (not active) | > 120 µM (not active) | > 120 µM (not active) |  |
| O=c1c([N+](=O)[O-])c[nH]c2nc(-c3ccncc3)nn12 |  |  | 14.2 µM (active) | > 120 µM (not active) | 15.8 µM (active) |  |
| O=S(=O)(NCC(c1ccco1)N1CCN(c2ccc(F)cc2)CC1)c1ccc2c(c1)OCCO2 (stereo not drawn) |  |  |  |  |  | EC50 [3]: > 38 µM (not active); EC50 [4]: > 150 µM (inactive) |
| O=C(CC12CC3CC(CC(C3)C1)C2)NC(=S)NCc1ccccc1 |  |  | 18.4 µM (active) | 16.8 µM (active) | 13.1 µM (active) |  |
| Cc1cc(/C=C2\C(=O)NC(=O)N(c3cccc(F)c3)C2=O)c(C)n1-c1ccc(C(=O)O)c(Cl)c1 | > 300 µM (not active) | > 300 µM (not active) |  |  |  |  |
| Cc1cccc(NC2=NC(=O)CS2)c1 | > 300 µM (not active) | > 300 µM (not active) |  |  |  |  |
| O=C(Cn1cnc2c(cnn2-c2ccc(Cl)cc2)c1=O)N1CCN(c2ccccc2)CC1 |  |  | 12 µM (active) | 18.4 µM (active) | 15.8 µM (active) |  |
| Cc1n[nH]c(C)c1CCNCc1ccc(OCC(O)CN2CCCCC2)cc1 (stereo not drawn) |  |  |  |  |  | EC50 [3]: > 38 µM (not active); EC50 [4]: > 150 µM (inconclusive) |
| Cc1cccc(C)c1NC(=O)COC(=O)c1cccc2c1C(=O)c1ccccc1C2=O |  |  | 13.3 µM (active) | > 120 µM (not active) | 13.9 µM (active) | EC50 [8]: 30.8 µM (active) |
| Cc1cc(C)c2c(N)c(C(=O)c3ccc(Cl)cc3Cl)sc2n1 |  |  | 19.4 µM (active) | 13.8 µM (active) | 12.2 µM (active) |  |
| O=C(NCCc1c[nH]c2ccccc12)C1CCC(Cn2c(=S)[nH]c3ccccc3c2=O)CC1 (stereo not drawn) |  |  | > 120 µM (not active) | 32.1 µM (active) | 16.9 µM (active) | AC50 [9]: 0.582 µM (active); EC50 [11]: 1.07 µM (active); EC50 [12]: > 60 µM (not active) |
| Cc1cccc(/N=N/c2c(C)[nH]n(C(N)=S)c2=O)c1C |  |  |  |  |  | EC50 [3]: 3.07 µM (active); EC50 [4]: > 150 µM (inactive) |
| COc1cccc(N/N=C2/C(=O)Nn3c2nc(C)cc3=O)c1 | < 0.06 µM (inconclusive) | > 300 µM (inconclusive) |  |  |  |  |
| Cc1ccc(S(=O)(=O)N(C)CC(=O)N/N=C/c2ccc(C)o2)cc1 |  |  | > 120 µM (not active) | > 120 µM (not active) | > 120 µM (not active) |  |
| O=C1CCCCC/C1=N/Nc1ccc(OCc2ccccc2)cc1 |  |  |  |  |  | EC50 [3]: > 38 µM (not active); EC50 [4]: > 150 µM (inactive) |
| N=C(N)c1ccc(OCCCCCOc2ccc(C(=N)N)cc2)cc1 |  |  | 10.9 µM (active) | 9.9 µM (active) | 11.5 µM (active) | EC50 (Streptococcus): < 0.06 µM (active); EC50 (Streptokinase A): 27.9 µM (active); EC50 [10]: < 0.06 µM (active) |

From ChEMBL document CHEMBL1201862, “PubChem BioAssay data set” (2004)
